Source: the supplement of paper PMC10307832

Legend:
Assay in all cases: relative viability (nuclei count vs DMSO), 5 days (fraction); higher = more cells survive
GW-2580 + Pictilisib = compound: COC1=CC=C(C=C1)COC2=C(C=C(C=C2)CC3=CN=C(N=C3N)N)OC [GW-2580] + CS(=O)(=O)N1CCN(Cc2cc3nc(-c4cccc5[nH]ncc45)nc(N4CCOCC4)c3s2)CC1 [Pictilisib] (partner 1 µM)
Procedure, shortened: (§1)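 Medians of duplicate plates are given as relative viability. That measure is the nuclei count in treated wells divided by the count in vehicle wells. Counts were taken on 4× images of lung cancer cell lines in 1536-well plates, 5 days after pin-tool dosing the day after seeding with one drug alone or a fixed anchor-drug dose plus five library-drug doses (not always all listed) in √10 steps.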

Fedratinib + Linsitinib = compound: Cc1cnc(Nc2ccc(OCCN3CCCC3)cc2)nc1Nc1cccc(S(=O)(=O)NC(C)(C)C)c1 [Fedratinib] + C[C@]1(O)C[C@@H](c2nc(-c3ccc4ccc(-c5ccccc5)nc4c3)c3c(N)nccn32)C1 [Linsitinib] (partner 1 µM)
Procedure, shortened: as §1

GW-2580 + Luminespib = compound: COC1=CC=C(C=C1)COC2=C(C=C(C=C2)CC3=CN=C(N=C3N)N)OC [GW-2580] + CCNC(=O)c1noc(-c2cc(C(C)C)c(O)cc2O)c1-c1ccc(CN2CCOCC2)cc1 [Luminespib] (partner 0.01 µM)
Procedure, shortened: as §1

GW-2580 + Foretinib = compound: COC1=CC=C(C=C1)COC2=C(C=C(C=C2)CC3=CN=C(N=C3N)N)OC [GW-2580] + COc1cc2c(Oc3ccc(NC(=O)C4(C(=O)Nc5ccc(F)cc5)CC4)cc3F)ccnc2cc1OCCCN1CCOCC1 [Foretinib] (partner 0.25 µM)
Procedure, shortened: as §1

GW-2580 + Decitabine = compound: COC1=CC=C(C=C1)COC2=C(C=C(C=C2)CC3=CN=C(N=C3N)N)OC [GW-2580] + Nc1ncn([C@H]2C[C@H](O)[C@@H](CO)O2)c(=O)n1 [Decitabine] (partner 2 µM)
Procedure, shortened: as §1

Cell Line	relative viability (GW-2580 + Pictilisib; first compound 0.08 µM)	relative viability (GW-2580 + Pictilisib; first compound 0.8 µM)	relative viability (GW-2580 + Pictilisib; first compound 2.53 µM)	relative viability (GW-2580 + Pictilisib; first compound 8 µM)	relative viability (Fedratinib + Linsitinib; first compound 0.1 µM)	relative viability (Fedratinib + Linsitinib; first compound 0.3162 µM)	relative viability (Fedratinib + Linsitinib; first compound 1 µM)	relative viability (GW-2580 + Luminespib; first compound 0.08 µM)	relative viability (GW-2580 + Luminespib; first compound 0.8 µM)	relative viability (GW-2580 + Luminespib; first compound 2.53 µM)	relative viability (GW-2580 + Luminespib; first compound 8 µM)	relative viability (GW-2580 + Foretinib; first compound 0.08 µM)	relative viability (GW-2580 + Foretinib; first compound 0.8 µM)	relative viability (GW-2580 + Foretinib; first compound 2.53 µM)	relative viability (GW-2580 + Foretinib; first compound 8 µM)	relative viability (GW-2580 + Decitabine; first compound 0.08 µM)	relative viability (GW-2580 + Decitabine; first compound 0.8 µM)	relative viability (GW-2580 + Decitabine; first compound 2.53 µM)	relative viability (GW-2580 + Decitabine; first compound 8 µM)
HOP-62	0.909	0.72	0.63	0.736	0.837	0.975	0.884	1.02	1.04	0.91	0.917	1.27	1.25	1.02	1.11	0.174	0.192	0.231	0.23
LOU-NH91	0.527	0.549	0.502	0.535	0.844	1.08	0.831	0.413	0.34	0.319	0.356	0.957	0.969	0.94	1.02	0.82	0.861	0.782	0.905
PC-14	0.909	1.03	0.781	0.725	0.927	1.03	0.92	0.144	0.129	0.175	0.131	1.08	1.07	0.924	0.936	0.191	0.198	0.236	0.221
NCI-H1437	0.465	0.514	0.378	0.387	1.03	0.978	0.884	1.17	1.16	1.05	0.786	1.38	1.28	1.14	0.91	0.564	0.574	0.617	0.535
NCI-H460	0.369	0.452	0.248	0.4	0.806	0.773	0.52	0.0341	0.0427	0.0355	0.0322	1.02	1.09	0.987	0.924	0.577	0.574	0.461	0.461
NCI-H1666	0.55	0.653	0.316	0.573	0.726	0.875	0.869	0.984	1.09	0.918	0.928	0.928	0.936	0.948	0.991	0.604	0.888	0.738	0.698
NCI-H1651	0.65	0.707	0.597	0.599	0.976	0.954	1.01	0.877	1.01	0.8	0.823	0.958	0.804	0.754	0.745	0.565	0.666	0.551	0.548
NCI-H1755	0.489	0.461	0.321	0.372	0.995	1	0.885	0.697	0.401	0.332	0.45	1.02	0.967	0.907	0.679	0.695	0.714	0.757	0.654
